Assay results reported in ChEMBL document CHEMBL3045788, “Effect of abamectin on root-knot nematodes and tomato yield” (Pest Manag Sci, 2012).
Activity calls are given as the source filed them. No cut-off for these calls is given here.

Assays:
Meloidogyne incognita [1] = test: Nematicidal activity against second-stage juvenile Meloidogyne incognita (root-knot nematode) infested tomato field assessed as reduction in number of nematodes in soil at 8 kg/hectare measured after 20 days; format: functional, organism-based
Meloidogyne incognita [2] = test: Nematicidal activity against second-stage juvenile Meloidogyne incognita (root-knot nematode) assessed as mortality after 48 hr; format: functional
Meloidogyne incognita [3] = test: Nematicidal activity against second-stage juvenile Meloidogyne incognita (root-knot nematode) infested tomato field assessed as medium fruit yield at 8 kg/hectare; format: functional
Meloidogyne incognita [4] = test: Nematicidal activity against second-stage juvenile Meloidogyne incognita (root-knot nematode) infested tomato field assessed as extra-large fruit yield at 8 kg/hectare; format: functional
Meloidogyne incognita [5] = test: Nematicidal activity against second-stage juvenile Meloidogyne incognita (root-knot nematode) infested tomato field assessed as plant height at 8 kg/hectare measured after 30 days; format: functional
Meloidogyne incognita [6] = test: Nematicidal activity against second-stage juvenile Meloidogyne incognita (root-knot nematode) infested tomato field assessed as reduction in number of nematodes in soil at 8 kg/hectare measured after 40 days; format: functional, organism-based
Meloidogyne incognita [7] = test: Nematicidal activity against second-stage juvenile Meloidogyne incognita (root-knot nematode) infested tomato plant under greenhouse condition assessed as plant vigour at 8 kg/hectare measured after 30 days; format: functional
Meloidogyne incognita [8] = test: Nematicidal activity against second-stage juvenile Meloidogyne incognita (root-knot nematode) infested tomato field assessed as reduction in number of nematodes in soil at 8 kg/hectare measured after 60 days; format: functional, organism-based
Meloidogyne incognita [9] = test: Nematicidal activity against second-stage juvenile Meloidogyne incognita (root-knot nematode) infested tomato plant under greenhouse condition assessed as fresh root weight at 8 kg/hectare measured after 30 days; format: functional
Meloidogyne incognita [10] = test: Nematicidal activity against second-stage juvenile Meloidogyne incognita (root-knot nematode) infested tomato plant under greenhouse condition assessed as reduction in root galling index at 8 kg/hectare measured after 30 days; format: functional, organism-based
Meloidogyne incognita [11] = test: Nematicidal activity against second-stage juvenile Meloidogyne incognita (root-knot nematode) infested tomato plant under greenhouse condition assessed as plant height at 8 kg/hectare measured after 30 days; format: functional
Meloidogyne incognita [12] = test: Nematicidal activity against second-stage juvenile Meloidogyne incognita (root-knot nematode) infested tomato field assessed as plant height at 8 kg/hectare measured after 50 days; format: functional
Meloidogyne incognita [13] = test: Nematicidal activity against second-stage juvenile Meloidogyne incognita (root-knot nematode) infested tomato field assessed as reduction in root galling index at 8 kg/hectare measured after 30 days; format: functional, organism-based
Meloidogyne incognita [14] = test: Nematicidal activity against second-stage juvenile Meloidogyne incognita (root-knot nematode) infested tomato field assessed as large fruit yield at 8 kg/hectare; format: functional
Meloidogyne incognita [15] = test: Nematicidal activity against second-stage juvenile Meloidogyne incognita (root-knot nematode) infested tomato field assessed as plant vigour at 8 kg/hectare measured after 30 days; format: functional
Meloidogyne incognita [16] = test: Nematicidal activity against second-stage juvenile Meloidogyne incognita (root-knot nematode) infested tomato field assessed as marketable yield at 8 kg/hectare; format: functional

CCOP(=O)(SC(C)CC)SC(C)CC (configuration not stated) [CADUSAFOS]
Activity (Meloidogyne incognita [1]): Active
LC50 (Meloidogyne incognita [2]): 13.43 mgAi/L
LC90 (Meloidogyne incognita [2]): 50.34 mgAi/L
Activity (Meloidogyne incognita [3]): 41.6%
Activity (Meloidogyne incognita [4]): 7.2%
Activity (Meloidogyne incognita [5]): 38.6 cm
Activity (Meloidogyne incognita [6]): Active
Activity (Meloidogyne incognita [7]): 91%
Activity (Meloidogyne incognita [8]): Active
Activity (Meloidogyne incognita [9]): 1.13 g
Activity (Meloidogyne incognita [10]): Active
Activity (Meloidogyne incognita [11]): 39.2 cm
Activity (Meloidogyne incognita [12]): 101.8 cm
Activity (Meloidogyne incognita [13]): Active
Activity (Meloidogyne incognita [14]): 19.9%
Activity (Meloidogyne incognita [15]): 90%
Activity (Meloidogyne incognita [16]): 68.7%
